Results from US20240124417A1, “COMPOUNDS USEFUL AS IMMUNOMODULATORS” (Bristol-Myers Squibb Company, priority 2019, published 2024).

target: T1, PD-1/PD-L1 (Homo sapiens, UniProt Q9NZQ7); assay: PD-1/PD-L1 Homogenous Time-Resolved Fluorescence (HTRF) binding assay; conditions: PD-L1-His 10 nM, PD-1-Ig 20 nM
T1 construct: TVMV protease site linker (C); made in house; host or cells: HEK293T cells
Method in brief: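 Inhibitors pre-incubated 15 min with PD-L1-His extracellular domain (10 nM final) in dPBS with 0.1% BSA and 0.05% Tween-20, then PD-1-Ig (20 nM final) added for a further 15 min. Read-out by HTRF with europium cryptate anti-Ig (1 nM) and APC anti-His (20 nM). Related pairs: PD-1-Ig/PD-L2-His (20/5 nM), CD80-His/PD-L1-Ig (100/10 nM).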

T1 sequence (Q9NZQ7 18-239): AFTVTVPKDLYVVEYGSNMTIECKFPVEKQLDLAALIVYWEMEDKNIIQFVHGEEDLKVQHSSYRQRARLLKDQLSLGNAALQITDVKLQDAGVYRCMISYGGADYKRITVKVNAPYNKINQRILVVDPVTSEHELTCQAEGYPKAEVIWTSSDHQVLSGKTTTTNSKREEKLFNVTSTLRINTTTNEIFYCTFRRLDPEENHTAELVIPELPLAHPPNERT

Row | IC50 [nM] | Compound
1 | 2.3 | Cc1c(COc2cc(OCc3cncc(C#N)c3)c(CN(C)Cc3cccnc3)cc2Cl)cccc1-c1cccc(OCCCN2CC[C@@H](O)C2)c1C [Example 2501, (R)-5-((4-chloro-5-((3′-(3-(3-hydroxypyrrolidin-1-yl)propoxy)-2,2′-dimethyl-[1,1′-biphenyl]-3-yl)methoxy)-2-((methyl(pyridin-3-ylmethyl)amino)methyl)phenoxy)methyl)nicotinonitrile]
2 | 1.8 | Cc1c(COc2cc(OCc3cncc(C#N)c3)c(CN(C)Cc3csc(N)n3)cc2Cl)cccc1-c1cccc(OCC2CCCN(C)C2)c1Cl (stereo not drawn) [Example 2617, 5-((2-((((2-aminothiazol-4-yl)methyl)(methyl)amino)methyl)-4-chloro-5-((2′-chloro-2-methyl-3′-((1-methylpiperidin-3-yl)methoxy)-[1,1′-biphenyl]-3-yl)methoxy)phenoxy)methyl)nicotinonitrile]
3 | 4.4 | Cc1c(COc2cc(OCc3cnccn3)c(CNCc3ncccn3)cc2Cl)cccc1-c1cccc(OCC2CCCN(C)C2)c1Cl (stereo not drawn) [Example 2059, N-(5-chloro-4-((2′-chloro-2-methyl-3′-((1-methylpiperidin-3-yl)methoxy)-[1,1′-biphenyl]-3-yl)methoxy)-2-(pyrazin-2-ylmethoxy)benzyl)-1-(pyrimidin-2-yl)methanamine]
4 | 3 | Cc1noc(C)c1CNCc1cc(Cl)c(OCc2cccc(-c3cccc(OCCCN4CC[C@@H](O)C4)c3C)c2C)cc1OCc1cncc(C#N)c1 [Example 2526, (R)-5-((4-chloro-2-((((3,5-dimethylisoxazol-4-yl)methyl)amino)methyl)-5-((3′-(3-(3-hydroxypyrrolidin-1-yl)propoxy)-2,2′-dimethyl-[1,1′-biphenyl]-3-yl)methoxy)phenoxy)methyl)nicotinonitrile]
5 | 3 | Cc1c(COc2cc(OCc3cncc(C#N)c3)c(CNCCc3nc4ccccc4[nH]3)cc2Cl)cccc1-c1cccc(OCC2CCCN(C)C2)c1Cl (stereo not drawn) [Example 2593, 5-((2-(((2-(1H-benzo[d]imidazol-2-yl)ethyl)amino)methyl)-4-chloro-5-((2′-chloro-2-methyl-3′-((1-methylpiperidin-3-yl)methoxy)-[1,1′-biphenyl]-3-yl)methoxy)phenoxy)methyl)nicotinonitrile]
6 | 355 | Cc1c(COc2cc(OCc3cncc(C#N)c3)c(CN(C)Cc3cncs3)cc2Cl)cccc1-c1cccc(OC2CCN(C)CC2)c1Cl [Example 2048, 5-((4-chloro-5-((2′-chloro-2-methyl-3′-((1-methylpiperidin-4-yl)oxy)-[1,1′-biphenyl]-3-yl)methoxy)-2-((methyl(thiazol-5-ylmethyl)amino)methyl)phenoxy)methyl)nicotinonitrile]
7 | 3.4 | Cc1c(COc2cc(OCc3cncc(C#N)c3)c(CN(C)Cc3cncs3)cc2Cl)cccc1-c1cccc(OCCCN2CC[C@@H](O)C2)c1C [Example 2534, (R)-5-((4-chloro-5-((3′-(3-(3-hydroxypyrrolidin-1-yl)propoxy)-2,2′-dimethyl-[1,1′-biphenyl]-3-yl)methoxy)-2-((methyl(thiazol-5-ylmethyl)amino)methyl)phenoxy)methyl)nicotinonitrile]
8 | 23.2 | Cc1onc(-c2ccccc2)c1CNCc1cc(Cl)c(OCc2cccc(-c3cccc(OCCCN4CC[C@@H](O)C4)c3C)c2C)cc1OCc1cncc(C#N)c1 [Example 2522, (R)-5-((4-chloro-5-((3′-(3-(3-hydroxypyrrolidin-1-yl)propoxy)-2,2′-dimethyl-[1,1′-biphenyl]-3-yl)methoxy)-2-((((5-methyl-3-phenylisoxazol-4-yl)methyl)amino)methyl)phenoxy)methyl)nicotinonitrile]
9 | 2.9 | Cc1noc(C)c1CNCc1cc(Cl)c(OCc2cccc(-c3cccc(OCC4CCCN(C)C4)c3Cl)c2C)cc1OCc1cncc(C#N)c1 (stereo not drawn) [Example 2597, 5-((4-chloro-5-((2′-chloro-2-methyl-3′-((1-methylpiperidin-3-yl)methoxy)-[1,1′-biphenyl]-3-yl)methoxy)-2-((((3,5-dimethylisoxazol-4-yl)methyl)amino)methyl)phenoxy)methyl)nicotinonitrile]
10 | 1.6 | Cc1c(COc2cc(OCc3cncc(C#N)c3)c(CNCc3ncc[nH]3)cc2Cl)cccc1-c1cccc(OCC2CCCN(C)C2)c1Cl (stereo not drawn) [Example 2577, 5-((2-((((1H-imidazol-2-yl)methyl)amino)methyl)-4-chloro-5-((2′-chloro-2-methyl-3′-((1-methylpiperidin-3-yl)methoxy)-[1,1′-biphenyl]-3-yl)methoxy)phenoxy)methyl)nicotinonitrile]
11 | 0.5 | Cc1c(COc2cc(OCc3cncc(C#N)c3)c(CNCCc3ncn[nH]3)cc2Cl)cccc1-c1cccc(OCC2CCCN(C)C2)c1Cl (stereo not drawn) [Example 2579, 5-((2-(((2-(1H-1,2,4-triazol-5-yl)ethyl)amino)methyl)-4-chloro-5-((2′-chloro-2-methyl-3′-((1-methylpiperidin-3-yl)methoxy)-[1,1′-biphenyl]-3-yl)methoxy)phenoxy)methyl)nicotinonitrile]

Further lines, the compound ahead of its results:

Row | Compound | IC50 [nM]
12 | Cc1c(COc2cc(OCc3cncc(C#N)c3)c(CNCc3cncs3)cc2Cl)cccc1-c1cccc(OC2CCN(C)CC2)c1Cl [Example 2046, 5-((4-chloro-5-((2′-chloro-2-methyl-3′-((1-methylpiperidin-4-yl)oxy)-[1,1′-biphenyl]-3-yl)methoxy)-2-(((thiazol-5-ylmethyl)amino)methyl)phenoxy)methyl)nicotinonitrile] | 32.3
13 | Cc1c(COc2cc(OCc3cncc(C#N)c3)c(CNCc3cccnc3)cc2Cl)cccc1-c1cccc(OCCCN2CC[C@@H](O)C2)c1C [Example 2018, (R)-5-((4-chloro-5-((3′-(3-(3-hydroxypyrrolidin-1-yl)propoxy)-2,2′-dimethyl-[1,1′-biphenyl]-3-yl)methoxy)-2-(((pyridin-3-ylmethyl)amino)methyl)phenoxy)methyl)nicotinonitrile] | 0.8
14 | Cc1c(COc2cc(OCc3cncc(C#N)c3)c(CN(C)Cc3ncc[nH]3)cc2Cl)cccc1-c1cccc(OCCCN2CCC(O)(CO)CC2)c1Cl [Example 2015, 5-((2-((((1H-imidazol-2-yl)methyl)(methyl)amino)methyl)-4-chloro-5-((2′-chloro-3′-(3-(4-hydroxy-4-(hydroxymethyl)piperidin-1-yl)propoxy)-2-methyl-[1,1′-biphenyl]-3-yl)methoxy)phenoxy)methyl)nicotinonitrile] | 3.1
15 | Cc1c(COc2cc(OCc3cncc(C#N)c3)c(CNCC(C)c3nnn[nH]3)cc2Cl)cccc1-c1cccc(OCCCN2CC[C@@H](O)C2)c1C (stereo partly drawn) [Example 1013, 5-((2-(((2-(1H-Tetrazol-5-yl)propyl)amino)methyl)-4-chloro-5-((3′-(3-((R)-3-hydroxy-pyrrolidin-1-yl)propoxy)-2,2′-dimethyl-[1,1′-biphenyl]-3-yl)methoxy)phenoxy)methyl)-nicotinonitrile] | 3.2
16 | Cc1c(COc2cc(OCc3cncc(C#N)c3)c(CN3CCCC3c3nnn[nH]3)cc2Cl)cccc1-c1cccc(OCCCN2CC[C@@H](O)C2)c1C (stereo partly drawn) [Example 1015, 5-((2-((2-(1H-Tetrazol-5-yl)pyrrolidin-1-yl)methyl)-4-chloro-5-((3′-(3-((R)-3-hydroxy-pyrrolidin-1-yl)propoxy)-2,2′-dimethyl-[1,1′-biphenyl]-3-yl)methoxy)phenoxy)methyl)-nicotinonitrile] | 2.9
17 | Cc1c(COc2cc(OCc3cncc(C#N)c3)c(CN(C)Cc3nc4ccccc4[nH]3)cc2Cl)cccc1-c1cccc(OCCCN2CC[C@@H](O)C2)c1C [Example 2023, (R)-5-((2-((((1H-benzo[d]imidazol-2-yl)methyl)(methyl)amino)methyl)-4-chloro-5-((3′-(3-(3-hydroxypyrrolidin-1-yl)propoxy)-2,2′-dimethyl-[1,1′-biphenyl]-3-yl)methoxy)phenoxy)methyl)nicotinonitrile] | 8.8
18 | Cc1c(COc2cc(OCc3cncc(C#N)c3)c(CN(C)Cc3ccnc(C#N)n3)cc2Cl)cccc1-c1cccc(OCCCN2CC[C@@H](O)C2)c1C [Example 2045, (R)-4-(((5-chloro-2-((5-cyanopyridin-3-yl)methoxy)-4-((3′-(3-(3-hydroxypyrrolidin-1-yl)propoxy)-2,2′-dimethyl-[1,1′-biphenyl]-3-yl)methoxy)benzyl) (methyl)amino)methyl)pyrimidine-2-carbonitrile] | 16.4
19 | CC(=O)NC1CCN(CCCOc2cccc(-c3cccc(COc4cc(OCc5cncc(C#N)c5)c(CN5CCCCC5c5nnn[nH]5)cc4Cl)c3C)c2C)CC1 (stereo not drawn) [Example 1048, N-(1-(3-((3′-((4-((2-(1H-Tetrazol-5-yl)piperidin-1-yl)methyl)-2-chloro-5-((5-cyano-pyridin-3-yl)methoxy)phenoxy)methyl)-2,2′-dimethyl-[1,1′-biphenyl]-3-yl)oxy)propyl)-piperidin-4-yl)acetamide] | 0.5
20 | Cc1c(COc2cc(OCc3cncc(C#N)c3)c(CN3CCCCC3c3cn[nH]c3)cc2Cl)cccc1-c1cccc(OCCCN2CC[C@@H](O)C2)c1C (stereo partly drawn) [Example 1011, 5-((2-((2-(1H-Pyrazol-4-yl)piperidin-1-yl)methyl)-4-chloro-5-((3′-(3-((R)-3-hydroxy-pyrrolidin-1-yl)propoxy)-2,2′-dimethyl-[1,1′-biphenyl]-3-yl)methoxy)phenoxy)methyl)-nicotinonitrile] | 17.5
21 | Cc1c(COc2cc(OCc3cncc(C#N)c3)c(CNCc3c[nH]cn3)cc2Cl)cccc1-c1cccc(OCCCN2CCC(O)(CO)CC2)c1Cl [Example 2010, 5-((2-((((1H-imidazol-4-yl)methyl)amino)methyl)-4-chloro-5-((2′-chloro-3′-(3-(4-hydroxy-4-(hydroxymethyl)piperidin-1-yl)propoxy)-2-methyl-[1,1′-biphenyl]-3-yl)methoxy)phenoxy)methyl)nicotinonitrile] | 2.1
